Source: patent publication US20190208782A1, “PROCESSING COMPOSITION FOR C[…] WEEDS” (Arch Chemicals, Inc., priority 2018, published 2019)
≈ marks a conversion by molar mass, not a printed value.

System: Elodea (Elodea canadensis)
Test: Native plant selectivity screening in aquaria, elodea (Example 6)
Assay type: in vivo
Details: static exposure; for Elodea biomass vs untreated reference plants: four WAT
Experimental: Materials and Methods: The study was conducted in an indoor aquaria facility. Elodea (Elodea canadensis) was obtained from cultures. Two apical tips approximately 10 cm long were planted into each of 48, plastic containers (16 oz. plastic cups). The containers were filled with potting soil and amended with 2 g/L Osmocote® fertilizer 19-6-12. A layer of sand was placed on top of the sediment in each container to prevent sediment re-suspension in the aquaria. Two containers of potted elodea were placed into each of 24 aquaria measuring 11.5 in×11.5 in×24 in. Additionally, sago pondweed (Stuckenia pectinata) tubers were obtained. The tubers were floated in shallow containers filled with water until new sprouts began to grow.
Once sprouted, two tubers were planted into 16 oz containers in a similar fashion as elodea. Two containers of potted sago pondweed were placed into each of the 24 aquaria, so that each aquarium had 4 potted plants (2 pots of each species). Each aquarium was filled to a volume of 45 L and plants allowed to grow approximately 3-4 weeks prior to herbicide treatments or until plants were at or near the water surface. Supplemental lighting was provided using Agrobrite growth lamps on a 12:12 light:dark cycle. After the plants reached the desired level of growth, a liquid formulation of fluroxypyr ester was applied as a concentrated aqueous solution at the concentrations outlined in Table 9. An untreated reference was also included for comparison purposes. All herbicide applications were made using a static exposure and replicated 3 times. […] Water was added to the aquaria as needed to maintain the desired 45 L volume of water.
At four weeks after treatment (WAT), plants were, harvested, sorted to aboveground biomass, dried in a forced air oven at 50 C for at least 48 h, and weighed for biomass determination (g/DW/aquaria). Differences between treatments were analyzed using an ANOVA, and if treatment differences were detected; means were separated using a Tukey's All-Pairwise comparison test. All analyses were conducted at a p≤0.05 significance level. Additionally, regression models were fit to elodea biomass data in order to estimate the EC50 concentration under the current experimental design.

## CCCCCCC(C)OC(=O)COc1nc(F)c(Cl)c(N)c1Cl (stereo not shown) [Fluroxypyr ester, [(4-amino-3,5-dichloro-6-fluoro-2-pyridinyl)oxy]acetic acid, 1-methylheptyl ester]
400 ug/L or higher
  Elodea biomass vs untreated reference plants: reduced
50, 100, and 200 ug/L
  Elodea biomass vs untreated reference plants: similar
Elodea canadensis, 4 WAT, aquaria, read-out: EC50 for elodea (biomass, regression model)
  EC50: 0.356 µg/mL (≈ 0.969 µM)
Within one WAT, transient in the lower concentration treatments
  herbicide symptoms on elodea: epinastic twisting and bending
